{
  "source": "patent US8802597B2",
  "about": "“Herbicidal pyrimidines” (E I du Pont de Nemours and Company, priority 2003, dated 2014)",
  "assay_in_all_cases": "Test C pre/postemergence",
  "format_in_all_cases": "in vivo",
  "key": {"[1]": {"tested_on": "cocklebur (Xanthium strumarium)", "conditions": "for Cocklebur plant response rating: scale 0 to 100 (0 no effect, 100 complete control)", "in_short": "(§1)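 We sprayed seeded pots preemergence and 2–18 cm seedlings postemergence with test chemicals in a non-phytotoxic solvent mixture including surfactant. Greenhouse plants were visually compared with untreated controls at 12 to 14 days and scored 0 (no effect) to 100 (complete control).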"}, "[2]": {"tested_on": "johnsongrass (Sorghum halepense)", "in_short": "as §1"}, "[3]": {"tested_on": "giant foxtail (Setaria faberii)", "conditions": "for Foxtail, Giant plant response rating: scale 0 to 100 (0 no effect, 100 complete control)", "in_short": "as §1"}, "soybean (Glycine max)": {"tested_on": "soybean (Glycine max)", "conditions": "for Soybean plant response rating: scale 0 to 100 (0 no effect, 100 complete control)", "in_short": "as §1"}, "[4]": {"tested_on": "eastern black nightshade (Solanum ptycanthum)", "conditions": "Preemergence", "in_short": "as §1"}, "[5]": {"tested_on": "lambsquarters (Chenopodium album)", "conditions": "for Lambsquarters plant response rating: scale 0 to 100 (0 no effect, 100 complete control)", "in_short": "as §1"}, "corn (Zea mays)": {"tested_on": "corn (Zea mays)", "conditions": "for Corn plant response rating: scale 0 to 100 (0 no effect, 100 complete control)", "in_short": "as §1"}, "[6]": {"tested_on": "morningglory (Ipomoea coccinea)", "conditions": "for Morningglory plant response rating: scale 0 to 100 (0 no effect, 100 complete control)", "in_short": "as §1"}, "kochia (Kochia scoparia)": {"tested_on": "kochia (Kochia scoparia)", "conditions": "for Kochia plant response rating: scale 0 to 100 (0 no effect, 100 complete control); for Plant response rating, Kochia: scale 0 to 100", "in_short": "as §1"}, "[7]": {"tested_on": "common (oilseed) sunflower (Helianthus annuus)", "conditions": "Preemergence", "in_short": "as §1"}, "[8]": {"tested_on": "crabgrass (Digitaria sanguinalis)", "conditions": "for Crabgrass plant response rating: scale 0 to 100 (0 no effect, 100 complete control)", "in_short": "as §1"}, "[9]": {"tested_on": "Surinam grass (Brachiaria decumbens)", "conditions": "for Surinam Grass plant response rating: scale 0 to 100 (0 no effect, 100 complete control)", "in_short": "as §1"}, "[10]": {"conditions": "Postemergence, 250 g ai/ha, scale 0 to 100"}, "[11]": {"conditions": "Postemergence, 500 g ai/ha, scale 0 to 100"}, "[12]": {"conditions": "Preemergence, 62 g ai/ha, scale 0 to 100, 0 no effect, 100 complete control"}, "[13]": {"conditions": "Preemergence, 125 g ai/ha, scale 0 to 100"}, "[14]": {"conditions": "Preemergence, 250 g ai/ha, scale 0 to 100"}, "[15]": {"conditions": "Preemergence, 500 g ai/ha, scale 0 to 100"}, "[16]": {"conditions": "62 g ai/ha, scale 0 to 100, 0 no effect, 100 complete control"}},
  "data": [
    {"smiles": "CN(C)N=Cc1nc(C2CC2)nc(N)c1Br", "note": "[Compound 50]", "values": [
      {"measurement": "Cocklebur plant response rating", "setting": "[1]; Postemergence, 62 g ai/ha", "result": 40},
      {"measurement": "Cocklebur plant response rating", "setting": "[1]; Postemergence, 125 g ai/ha", "result": 40},
      {"measurement": "Plant response rating, Cocklebur", "setting": "[1]; [10]", "result": 65},
      {"measurement": "Plant response rating, Cocklebur", "setting": "[1]; [11]", "result": 90},
      {"measurement": "Plant response rating, Cocklebur", "setting": "[1]; [12]", "result": 70},
      {"measurement": "Plant response rating, Cocklebur", "setting": "[1]; [13]", "result": 85},
      {"measurement": "Plant response rating, Cocklebur", "setting": "[1]; [14]", "result": 95},
      {"measurement": "Plant response rating, Cocklebur", "setting": "[1]; [15]", "result": 95},
      {"measurement": "Johnsongrass plant response rating", "setting": "[2]; Postemergence, 62 g ai/ha, scale 0 to 100 (0 no effect, 100 complete control)", "result": 0},
      {"measurement": "Plant response rating, Johnsongrass", "setting": "[2]; [11]", "result": 60},
      {"measurement": "Plant response rating, Johnsongrass", "setting": "[2]; [12]", "result": 0},
      {"measurement": "Plant response rating, Johnsongrass", "setting": "[2]; [13]", "result": 55},
      {"measurement": "Plant response rating, Johnsongrass", "setting": "[2]; [14]", "result": 65},
      {"measurement": "Plant response rating, Johnsongrass", "setting": "[2]; [15]", "result": 85},
      {"measurement": "Foxtail, Giant plant response rating", "setting": "[3]; Postemergence, 62 g ai/ha", "result": 0},
      {"measurement": "Foxtail, Giant plant response rating", "setting": "[3]; Postemergence, 125 g ai/ha", "result": 0},
      {"measurement": "Plant response rating, Foxtail, Giant", "setting": "[3]; [10]", "result": 0},
      {"measurement": "Plant response rating, Foxtail, Giant", "setting": "[3]; [11]", "result": 20},
      {"measurement": "Plant response rating, Foxtail, Giant", "setting": "[3]; [12]", "result": 0},
      {"measurement": "Plant response rating, Foxtail, Giant", "setting": "[3]; [13]", "result": 0},
      {"measurement": "Plant response rating, Foxtail, Giant", "setting": "[3]; [14]", "result": 0},
      {"measurement": "Plant response rating, Foxtail, Giant", "setting": "[3]; [15]", "result": 70},
      {"measurement": "Soybean plant response rating", "setting": "soybean (Glycine max); Postemergence, 62 g ai/ha", "result": 95},
      {"measurement": "Soybean plant response rating", "setting": "soybean (Glycine max); Postemergence, 125 g ai/ha", "result": 95},
      {"measurement": "Plant response rating, Soybean", "setting": "soybean (Glycine max); [10]", "result": 100},
      {"measurement": "Plant response rating, Soybean", "setting": "soybean (Glycine max); [11]", "result": 100},
      {"measurement": "Plant response rating, Soybean", "setting": "soybean (Glycine max); [12]", "result": 0},
      {"measurement": "Plant response rating, Soybean", "setting": "soybean (Glycine max); [13]", "result": 60},
      {"measurement": "Plant response rating, Soybean", "setting": "soybean (Glycine max); [14]", "result": 75},
      {"measurement": "Plant response rating, Soybean", "setting": "soybean (Glycine max); [15]", "result": 90},
      {"measurement": "Plant response rating, Nightshade", "setting": "[4]; [16]", "result": 95},
      {"measurement": "Plant response rating, Nightshade", "setting": "[4]; 125 g ai/ha, scale 0 to 100", "result": 100},
      {"measurement": "Plant response rating, Nightshade", "setting": "[4]; 250 g ai/ha, scale 0 to 100", "result": 100},
      {"measurement": "Plant response rating, Nightshade", "setting": "[4]; 500 g ai/ha, scale 0 to 100", "result": 100},
      {"measurement": "Lambsquarters plant response rating", "setting": "[5]; Postemergence, 62 g ai/ha", "result": 70},
      {"measurement": "Lambsquarters plant response rating", "setting": "[5]; Postemergence, 125 g ai/ha", "result": 75},
      {"measurement": "Plant response rating, Lambsquarters", "setting": "[5]; [10]", "result": 80},
      {"measurement": "Plant response rating, Lambsquarters", "setting": "[5]; [11]", "result": 85},
      {"measurement": "Plant response rating, Lambsquarters", "setting": "[5]; [12]", "result": 95},
      {"measurement": "Plant response rating, Lambsquarters", "setting": "[5]; [13]", "result": 100},
      {"measurement": "Plant response rating, Lambsquarters", "setting": "[5]; [14]", "result": 100},
      {"measurement": "Plant response rating, Lambsquarters", "setting": "[5]; [15]", "result": 100},
      {"measurement": "Corn plant response rating", "setting": "corn (Zea mays); Postemergence, 62 g ai/ha", "result": 0},
      {"measurement": "Corn plant response rating", "setting": "corn (Zea mays); Postemergence, 125 g ai/ha", "result": 0},
      {"measurement": "Plant response rating, Corn", "setting": "corn (Zea mays); [10]", "result": 60},
      {"measurement": "Plant response rating, Corn", "setting": "corn (Zea mays); [11]", "result": 65},
      {"measurement": "Plant response rating, Corn", "setting": "corn (Zea mays); [12]", "result": 10},
      {"measurement": "Plant response rating, Corn", "setting": "corn (Zea mays); [13]", "result": 10},
      {"measurement": "Plant response rating, Corn", "setting": "corn (Zea mays); [14]", "result": 20},
      {"measurement": "Plant response rating, Corn", "setting": "corn (Zea mays); [15]", "result": 45},
      {"measurement": "Morningglory plant response rating", "setting": "[6]; Postemergence, 62 g ai/ha", "result": 65},
      {"measurement": "Morningglory plant response rating", "setting": "[6]; Postemergence, 125 g ai/ha", "result": 80},
      {"measurement": "Plant response rating, Morningglory", "setting": "[6]; [10]", "result": 85},
      {"measurement": "Plant response rating, Morningglory", "setting": "[6]; [11]", "result": 95},
      {"measurement": "Plant response rating, Morningglory", "setting": "[6]; [12]", "result": 80},
      {"measurement": "Plant response rating, Morningglory", "setting": "[6]; [13]", "result": 95},
      {"measurement": "Plant response rating, Morningglory", "setting": "[6]; [14]", "result": 95},
      {"measurement": "Plant response rating, Morningglory", "setting": "[6]; [15]", "result": 100},
      {"measurement": "Kochia plant response rating", "setting": "kochia (Kochia scoparia); Postemergence, 62 g ai/ha", "result": 20},
      {"measurement": "Kochia plant response rating", "setting": "kochia (Kochia scoparia); Postemergence, 125 g ai/ha", "result": 55},
      {"measurement": "Plant response rating, Kochia", "setting": "kochia (Kochia scoparia); Postemergence, 250 g ai/ha", "result": 65},
      {"measurement": "Plant response rating, Kochia", "setting": "kochia (Kochia scoparia); Postemergence, 500 g ai/ha", "result": 95},
      {"measurement": "Plant response rating, Kochia", "setting": "kochia (Kochia scoparia); Preemergence, 125 g ai/ha", "result": 0},
      {"measurement": "Plant response rating, Kochia", "setting": "kochia (Kochia scoparia); Preemergence, 250 g ai/ha", "result": 20},
      {"measurement": "Plant response rating, Kochia", "setting": "kochia (Kochia scoparia); Preemergence, 500 g ai/ha", "result": 90},
      {"measurement": "Plant response rating, Sunflower", "setting": "[7]; [16]", "result": 15},
      {"measurement": "Plant response rating, Sunflower", "setting": "[7]; 125 g ai/ha, scale 0 to 100", "result": 55},
      {"measurement": "Plant response rating, Sunflower", "setting": "[7]; 250 g ai/ha, scale 0 to 100", "result": 95},
      {"measurement": "Plant response rating, Sunflower", "setting": "[7]; 500 g ai/ha, scale 0 to 100", "result": 100},
      {"measurement": "Crabgrass plant response rating", "setting": "[8]; Postemergence, 62 g ai/ha", "result": 60},
      {"measurement": "Crabgrass plant response rating", "setting": "[8]; Postemergence, 125 g ai/ha", "result": 60},
      {"measurement": "Plant response rating, Crabgrass", "setting": "[8]; [10]", "result": 75},
      {"measurement": "Plant response rating, Crabgrass", "setting": "[8]; [11]", "result": 80},
      {"measurement": "Plant response rating, Crabgrass", "setting": "[8]; [12]", "result": 90},
      {"measurement": "Plant response rating, Crabgrass", "setting": "[8]; [13]", "result": 90},
      {"measurement": "Plant response rating, Crabgrass", "setting": "[8]; [14]", "result": 95},
      {"measurement": "Plant response rating, Crabgrass", "setting": "[8]; [15]", "result": 95},
      {"measurement": "Surinam Grass plant response rating", "setting": "[9]; Postemergence, 62 g ai/ha", "result": 0},
      {"measurement": "Surinam Grass plant response rating", "setting": "[9]; Postemergence, 125 g ai/ha", "result": 0},
      {"measurement": "Plant response rating, Surinam Grass", "setting": "[9]; [10]", "result": 0},
      {"measurement": "Plant response rating, Surinam Grass", "setting": "[9]; [11]", "result": 60},
      {"measurement": "Plant response rating, Surinam Grass", "setting": "[9]; [12]", "result": 0},
      {"measurement": "Plant response rating, Surinam Grass", "setting": "[9]; [13]", "result": 15},
      {"measurement": "Plant response rating, Surinam Grass", "setting": "[9]; [14]", "result": 65},
      {"measurement": "Plant response rating, Surinam Grass", "setting": "[9]; [15]", "result": 85}
    ]}
  ]
}
